Experimental data reported in paper PMC11022729 (Advanced Science, 2024).

Assay: Metabolic stability assay in rat liver microsomes
Format: in vitro ADME
Conditions: for metabolic stability: 10 µM, 15, 30 and 60 min
Experimental: We next assessed the metabolic stability of these compounds (10 µM) in rat liver microsomes (Figure 2A). […] Therefore, we assumed that the occupation of metabolically labile sites at the aromatic core and the reduction in electron density at the oxidizable nitrogen atom of the piperazine ring might increase metabolic stability. Indeed, both the introduction of fluorine at R^2 and the introduction of an electron‐withdrawing carboxylic acid linker at R^3 improved metabolic stability. The substitution of chlorine with a trifluoromethyl group at R^1 was also beneficial. In contrast, homopiperazine and hydroxy linkers were metabolically labile.
The solubilized test compound (5 µL, final concentration 10 µM) was preincubated at 37 °C in 432 µL phosphate buffer (0.1 M, pH 7.4) together with 50 µL NADPH regenerating system (30 mM glucose‐6‐phosphate, 4 U mL^−1 glucose 6‐phosphate dehydrogenase, 10 mM NADP, and 30 mM MgCl2). After 5 min, the reaction started upon the addition of 13 µL of microsome mix from the liver of Sprague‐Dawley rats (Invitrogen; 20 mg protein per mL in 0.1 M phosphate buffer) in a shaking water bath at 37 °C. The reaction was stopped by adding 500 µL ice‐cold methanol at 0, 15, 30, and 60 min. The samples were centrifuged at 5000 × g for 5 min at 4 °C and the test compound was quantified from the supernatants by HPLC; the composition of the mobile phase was adapted to the test compound in a range of MeOH 40−90% and water (0.1% formic acid) 10−60%. Flow rate: 1 mL min^−1; stationary phase: Purospher STAR, RP18, 5 µm, 125 × 4; precolumn: Purospher STAR, RP18, 5 µm, 4 × 4; detection wavelength: 254 and 280 nm; injection volume: 50 µL. Control samples were used to evaluate the stability of the test compounds in the reaction mixture. The first control was without NADPH, which is needed for the enzymatic activity of the microsomes, the second control was with inactivated microsomes (incubated for 20 min at 90 °C), and the third control was without the test compound (to determine the baseline). The amounts of test compounds were quantified using an external calibration curve.

| Compound | metabolic stability | drug remaining unmodified (10 µM, after 15 min) |
| --- | --- | --- |
| O=C(O)COCCN1CCN(C2=Nc3ccccc3Oc3ccc(Cl)cc32)CC1 [Compound 6] | highest metabolic stabilities |  |
| CN1CCN(C2=Nc3ccccc3Oc3ccc(Cl)cc32)CC1 [Loxapine, reference compound] | metabolized rapidly | 6% |
